Test results published in US20140341922A1, “Method for Overcoming Tolerance to Targeted Anti-Cancer Agent” (SUN R&DB Foundation, priority 2011, published 2014).
Entries after “also recorded” stand apart in the source; their conditions may differ.

Experiments:
[1] = system: recombinant soluble integrin β3 (rβ3) binding to IGF-1; assay: ELISA-type integrin binding assay on IGF-1-coated plates; conditions: 2 h
Protocol: IGF-1 (1 or 2 μg) was coated onto wells in 96-well microtiter plates and incubated with recombinant integrin β3 (0.5 μg/ml) and/or IGF-1R (0.1 or 0.5 μg/ml) protein diluted in 1 mM MnCl2-added HEPES-Tyrode buffer at room temperature for 2 h in the presence or absence of cixutumumab (10 μg/ml). Binding of integrin β3 and/or IGF-1R was detected by enzyme immunoassay using anti-His or anti-IGF-1R mAbs and avidin-labeled alkaline phosphatase-conjugated anti-mouse or anti-rabbit IgGs.
Secondly, the present inventors performed Enzyme-Linked ImmunoSorbent Assay-type integrin binding assay. Specifically, 96-well microtiter plates coated with IGF-1 were recombinant soluble IGF-1R (rIGF-1R; 5 μg/ml) or recombinant soluble integrin β3 (rβ3; 5 μg/ml), alone or in combination, in the presence or absence of cixutumumab (25 μg/ml) for 2 h. Bound IGF-1R (left) and integrin β3 (middle, right) were identified using anti-IGF1R and anti-His mAbs, respectively. The data are shown as the mean±SD of triplicate experiments (*P<0.05; **P=0.01; ***P<0.001).

[2] = system: LN686, FADU, and OSC19 cells; assay: Cell counting in 3D-mimic 2D culture (PCP or UAP); type: cell-based, human
Protocol: (§1) Cells were cultured in 96-well poly(poly-2-hydroxyethyl methacrylate [HEMA])-coated plates (PCPs) or ultra-low attached plates (UAPs). Control IgG1 (25 μg/ml), cixutumumab (25 μg/ml), PP2 (10 μM), and an integrin β3 neutralizing antibody B3A (10 μg/ml) were diluted in culture media containing 10% FBS or IGF-1 and treated alone or in combination. To examine the effect on cancer cell proliferation, a 3-(4,5-dimethylthiazol-2-yl)-2,5-diphenyltetrazolium bromide (MTT) or 3-(4,5-dimethylthiazol-2-yl)-5-(3-carboxymethoxyphenyl)-2-(4-sulfophenyl)-2H-tetrazolium (MTS) assay was performed, and to evaluate the effect on anchorage-independent colony formation, a soft agar colony formation assay was performed according to a method in our previous report (Morgillo et al., 2006).
(§2) The PCPs were prepared according to a previously reported method (Fukazawa et al., 1995). In brief, tissue culture plates were collated twice with poly-(HEMA) (10 mg/ml in 95% ethanol) at 37° C. and then washed with phosphate-buffered saline (PBS) several times.
Since cell growth rates could be different under each set of culture conditions, the present inventor counted the cells at distinct culture periods and depicted the results in FIG. 6. The values were represented as mean±standard deviation (SD), and a statistical significance was evaluated using two-sided Student t test (*P<0.05; **P<0.01).

[3] = system: Src and FAK phosphorylation; assay: Fluorescent immunostaining of pSrc and pFAK; type: cell-based, human
Description: The present inventors reconfirmed the western blot analysis results in which Src and FAK phosphorylation was increased due to cixutumumab in the presence of IGF-1 by fluorescent immunostaining. Cultured LN686 cells in UAPs with cixutumumab alone or in combination with IGF-1 or an integrin β3 neutralizing antibody, treated with IGF-1 to fix, and then Src and FAK phosphorylation was confirmed. […] Such an action of the cixutumumab was abolished by the IGF-1 or integrin β3 neutralizing antibody, and therefore it was reconfirmed that the action of cixutumumab for inducing the Src and FAK phosphorylation was mediated by integrin β3 in the presence of IGF-1.
According to the Previous study, a modified integrin β3 expression vector was prepared by substituting an amino acid sequence (CYDMKTTC, residues 177-184) of the integrin β3 essential for the IGF-1 bond with an amino acid sequence (CTSEQNC, residues 187-193) of integrin β1 at a corresponding position. An empty vector or a modified integrin β3 expression vector was transfected into FADU cells. These cells were plated, and cultured along with cixutumumab (25 μg/ml) alone or in combination with IGF-1 or an integrin β3 neutralizing antibody for 4 h. After the culture, IGF-1 […] was treated for 1 hour, and the cells were recovered, washed with PBS, and fixed with 10% formalin for 2 h. […]

[4] = system: 13 HNSCC and 6 NSCLC cells; assay: MTS viability assay in PCPs and UAPs; type: cell-based, human; conditions: PCPs, 25 μg/ml, 7 days
Protocol: as §1, §2
HNSCC and NSCLC cells grown in PCPs and UAPs were treated with cixutumumab (25 μg/ml) for 7 days. Each bar represents mean±SD of 6 wells of a single representative experiment.

IGF-1R = target: T1, IGF-1R (Homo sapiens, UniProt P08069); assay: IGF-1-induced IGF-1R phosphorylation, Western blot; type: cell-based; conditions: LN686 cells, cixutumumab 6 h, then 100 ng/ml IGF-1 for 30 min
T1 construct: endogenous in cells; host or cells: LN686 cells
T1 sequence (P08069 31-1367): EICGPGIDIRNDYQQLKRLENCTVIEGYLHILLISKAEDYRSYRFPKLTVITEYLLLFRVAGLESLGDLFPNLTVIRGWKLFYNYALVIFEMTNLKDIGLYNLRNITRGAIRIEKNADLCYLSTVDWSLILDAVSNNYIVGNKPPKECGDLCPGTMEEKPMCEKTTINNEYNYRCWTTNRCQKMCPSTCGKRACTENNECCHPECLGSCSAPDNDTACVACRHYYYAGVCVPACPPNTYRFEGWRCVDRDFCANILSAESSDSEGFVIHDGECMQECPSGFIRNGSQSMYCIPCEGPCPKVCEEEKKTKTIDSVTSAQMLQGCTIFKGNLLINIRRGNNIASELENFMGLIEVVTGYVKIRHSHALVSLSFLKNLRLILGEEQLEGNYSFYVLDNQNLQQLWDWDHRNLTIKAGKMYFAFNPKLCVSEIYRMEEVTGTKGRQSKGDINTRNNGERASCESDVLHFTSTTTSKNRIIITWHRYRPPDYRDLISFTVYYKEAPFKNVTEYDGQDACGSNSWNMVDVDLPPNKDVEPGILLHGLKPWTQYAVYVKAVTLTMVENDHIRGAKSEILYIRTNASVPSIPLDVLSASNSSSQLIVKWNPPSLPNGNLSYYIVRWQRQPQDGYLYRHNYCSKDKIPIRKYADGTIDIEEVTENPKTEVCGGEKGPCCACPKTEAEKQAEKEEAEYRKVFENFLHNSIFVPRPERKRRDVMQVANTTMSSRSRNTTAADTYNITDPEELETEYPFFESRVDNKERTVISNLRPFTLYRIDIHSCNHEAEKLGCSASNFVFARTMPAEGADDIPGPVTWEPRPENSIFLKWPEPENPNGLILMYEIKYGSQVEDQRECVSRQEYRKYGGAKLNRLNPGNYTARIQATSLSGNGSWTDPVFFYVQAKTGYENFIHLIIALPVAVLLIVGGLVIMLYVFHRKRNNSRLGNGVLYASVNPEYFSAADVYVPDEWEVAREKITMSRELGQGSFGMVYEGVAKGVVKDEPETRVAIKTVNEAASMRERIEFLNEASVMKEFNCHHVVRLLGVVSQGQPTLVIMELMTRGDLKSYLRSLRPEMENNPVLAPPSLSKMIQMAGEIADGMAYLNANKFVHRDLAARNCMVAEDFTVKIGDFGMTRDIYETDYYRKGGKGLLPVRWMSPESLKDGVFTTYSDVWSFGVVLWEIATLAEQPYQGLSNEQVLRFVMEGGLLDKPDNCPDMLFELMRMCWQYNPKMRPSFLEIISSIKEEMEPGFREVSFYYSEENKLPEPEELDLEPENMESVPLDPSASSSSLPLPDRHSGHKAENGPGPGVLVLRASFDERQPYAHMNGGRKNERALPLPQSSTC
Protocol: Preparation of total cell lysates, Western blot analysis, and immunoprecipitation were performed according to methods described in our previous report (Morgillo et al., 2006).
LN686 cells were treated with increasing concentrations of cixutumumab for 6 h, and then stimulated with 100 ng/ml IGF-1 for 30 min.

ablation of IGF-1-rβ3 interaction by rIGF-1R [1]: markedly blocked
Substance: cixutumumab: humanized mAb targeting IGF-1R, provided by ImClone Systems
growth rates vs control cells ([2]; LN686 and FADU cells): no difference
growth rates vs control cells ([2]; OSC19 cells): significantly slower growth rates
IGF-1-induced Src and FAK phosphorylation in cell membrane ([3]; LN686 cells adhered to ECM-coated coverslip): did not suppress or somewhat increased
Src and FAK phosphorylation (immunostaining) ([3]; LN686 cells in UAPs, in the presence of IGF-1): enhanced phosphorylation
inhibition in viability ([4]; 7 HNSCC and 2 NSCLC cell lines (red, resistant)): less than 20%
inhibition in viability ([4]; remaining 2 HNSCC and 2 NSCLC cell lines (black, sensitive)): more than 60%
IGF-1-induced IGF-1R phosphorylation (IGF-1R): markedly inhibited; also recorded: concentration-dependent inhibitory effect
